Source: patent US20060154243A1 (priority 2003, published 2006)

How the values were obtained:
[1] = test system: serum 1b (individual 1, late serum); assay type: binding, human
[2] = test system: serum 37 (individual 37); assay type: binding, human
[3] = test system: serum 6 (individual 6); assay type: binding, human
[4] = test system: serum SARS-yellow; assay type: binding, human
[5] = test system: serum 62 (individual 62); assay type: binding, human
[6] = test system: serum 1a (individual 1, early serum); assay type: binding, human
[7] = test system: serum SARS-green; assay type: binding, human
[8] = test system: control serum Blood-bank (commercial negative donor pooled serum); assay type: binding, human
[9] = test system: serum London; assay type: binding, human
[10] = test system: control serum LUMC (pooled serum of ten healthy hospital workers); assay type: binding, human
[11] = test system: serum 2 (individual 2); assay type: binding, human
[12] = test system: sera SARS-green, SARS-yellow, 1a, 1b, 2, 6, 37, 62 and London; assay type: binding, human
[13] = test system: rabbit serum obtained by immunizing with SARS-CoV strain Frankfurt 1; assay type: binding

Q: With AAVGEILLLEWLAEV as the sequence, how does the “Binding of serum 1b to linear peptides of Orf14 of SARS-CoV TOR2” value (from here on “Binding of serum 1b”) [1] read?
A: 0.5

Q: And the “Binding of serum 37 to linear peptides of Orf14 of SARS-CoV TOR2” value [2]?
A: 0.8

Q: And the “Binding of serum 6 to linear peptides of Orf14 of SARS-CoV TOR2” value [3]?
A: 0.5

Q: And the “Binding of serum SARS-yellow to linear peptides of Orf14 of SARS-CoV TOR2” value (“Binding of serum SARS-yellow” below) [4]?
A: 0.6

Q: And the “Binding of serum 62 to linear peptides of Orf14 of SARS-CoV TOR2” value [5]?
A: 0.6

Q: What about the “Binding of serum 1a to linear peptides of Orf14 of SARS-CoV TOR2” value (“Binding of serum 1a” below) [6] of the same sequence?
A: 0.6

Q: And the “Binding of serum SARS-green to linear peptides of Orf14 of SARS-CoV TOR2” value (shortened to “Binding of serum SARS-green”) [7]?
A: 0.5

Q: What about the “Control Serum Blood-Bank Looped peptides” value [8] of the same sequence?
A: 0.7

Q: And the “Control serum Blood-bank linear peptides” value [8]?
A: 0.4

Q: And the “Binding of serum London to linear peptides of Orf14 of SARS-CoV TOR2” value (“Binding of serum London” for short) [9]?
A: 0.6

Q: What about the “Control serum LUMC linear peptides” value [10] of the same sequence?
A: 0.6

Q: What about the “Control serum LUMC looped peptides” value [10] of the same sequence?
A: 0.7

Q: And the “Binding of serum 2 to linear peptides of Orf14 of SARS-CoV TOR2” value [11]?
A: 0.6

Q: AEAAVKPLLAPHHVV was tested. Which “Binding of serum 1b” value [1] did it give?
A: 0.5

Q: And the “Binding of serum 37 to linear peptides of Orf14 of SARS-CoV TOR2” value [2]?
A: 0.8

Q: What about the “Binding of serum 6 to linear peptides of Orf14 of SARS-CoV TOR2” value [3] of the same sequence?
A: 0.6

Q: And the “Binding of serum SARS-yellow” value [4]?
A: 0.8

Q: And the “Binding of serum 62 to linear peptides of Orf14 of SARS-CoV TOR2” value [5]?
A: 0.8

Q: What about the “Binding of serum 1a” value [6] of the same sequence?
A: 0.7

Q: What about the “Binding of serum SARS-green” value [7] of the same sequence?
A: 0.8

Q: What about the “Control Serum Blood-Bank Looped peptides” value [8] of the same sequence?
A: 0.6

Q: And the “Control serum Blood-bank linear peptides” value [8]?
A: 0.8

Q: What about the “Binding of serum London” value [9] of the same sequence?
A: 0.8

Q: And the “Control serum LUMC linear peptides” value [10]?
A: 1.0

Q: And the “Control serum LUMC looped peptides” value [10]?
A: 0.6

Q: And the “Binding of serum 2 to linear peptides of Orf14 of SARS-CoV TOR2” value [11]?
A: 1.3

Q: With APHHVVAVIQEIQLL as the sequence, how does the “Binding of serum 1b” value [1] read?
A: 0.4

Q: What about the “Binding of serum 37 to linear peptides of Orf14 of SARS-CoV TOR2” value [2] of the same sequence?
A: 0.5

Q: And the “Binding of serum 6 to linear peptides of Orf14 of SARS-CoV TOR2” value [3]?
A: 0.4

Q: And the “Binding of serum SARS-yellow” value [4]?
A: 0.3

Q: And the “Binding of serum 62 to linear peptides of Orf14 of SARS-CoV TOR2” value [5]?
A: 0.3

Q: And the “Binding of serum 1a” value [6]?
A: 0.5

Q: What about the “Binding of serum SARS-green” value [7] of the same sequence?
A: 0.1

Q: What about the “Control Serum Blood-Bank Looped peptides” value [8] of the same sequence?
A: 0.6

Q: What about the “Control serum Blood-bank linear peptides” value [8] of the same sequence?
A: 0.3

Q: What about the “Binding of serum London” value [9] of the same sequence?
A: 0.3

Q: And the “Control serum LUMC linear peptides” value [10]?
A: 0.6

Q: What about the “Control serum LUMC looped peptides” value [10] of the same sequence?
A: 0.5

Q: What about the “Binding of serum 2 to linear peptides of Orf14 of SARS-CoV TOR2” value [11] of the same sequence?
A: 0.4

Q: For AVGEILLLEWLAEVV, which “Binding of serum 1b” value [1] is on record?
A: 0.5

Q: And the “Binding of serum 37 to linear peptides of Orf14 of SARS-CoV TOR2” value [2]?
A: 0.7

Q: What about the “Binding of serum 6 to linear peptides of Orf14 of SARS-CoV TOR2” value [3] of the same sequence?
A: 0.5

Q: What about the “Binding of serum SARS-yellow” value [4] of the same sequence?
A: 0.5

Q: And the “Binding of serum 62 to linear peptides of Orf14 of SARS-CoV TOR2” value [5]?
A: 0.6

Q: And the “Binding of serum 1a” value [6]?
A: 0.6

Q: And the “Binding of serum SARS-green” value [7]?
A: 0.3

Q: What about the “Control Serum Blood-Bank Looped peptides” value [8] of the same sequence?
A: 0.8

Q: And the “Control serum Blood-bank linear peptides” value [8]?
A: 0.5

Q: And the “Binding of serum London” value [9]?
A: 0.6

Q: And the “Control serum LUMC linear peptides” value [10]?
A: 0.8

Q: And the “Control serum LUMC looped peptides” value [10]?
A: 0.8

Q: What about the “Binding of serum 2 to linear peptides of Orf14 of SARS-CoV TOR2” value [11] of the same sequence?
A: 0.5

Q: For LIIFWFSLEIQDLEE, which “Recognition of the peptide by sera of individuals infected by SARS-CoV, form recognized” value (“Recognition of the peptide” below) [12] is on record?
A: recognized in linear and in looped form

Q: And the “Rabbit serum linear peptides” value [13]?
A: 0.5

Q: What about the “Rabbit serum looped peptides” value [13] of the same sequence?
A: 0.7

Q: And the “Control Serum Blood-Bank Looped peptides” value [8]?
A: 0.7

Q: What about the “Control serum Blood-bank linear peptides” value [8] of the same sequence?
A: 0.8

Q: What about the “Control serum LUMC linear peptides” value [10] of the same sequence?
A: 0.7

Q: And the “Control serum LUMC looped peptides” value [10]?
A: 0.9

Q: LIMLIIFWFSLEIQD was tested. Which “Recognition of the peptide” value [12] did it give?
A: recognized in linear and in looped form

Q: And the “Rabbit serum linear peptides” value [13]?
A: 0.4

Q: What about the “Rabbit serum looped peptides” value [13] of the same sequence?
A: 0.6

Q: And the “Control Serum Blood-Bank Looped peptides” value [8]?
A: 0.7

Q: What about the “Control serum Blood-bank linear peptides” value [8] of the same sequence?
A: 0.9

Q: What about the “Control serum LUMC linear peptides” value [10] of the same sequence?
A: 1.1

Q: And the “Control serum LUMC looped peptides” value [10]?
A: 0.7

Q: MLIIFWFSLEIQDLE was tested. Which “Recognition of the peptide” value [12] did it give?
A: recognized in linear and in looped form

Q: And the “Rabbit serum linear peptides” value [13]?
A: 1.7

Q: What about the “Rabbit serum looped peptides” value [13] of the same sequence?
A: 0.5

Q: And the “Control Serum Blood-Bank Looped peptides” value [8]?
A: 0.7

Q: And the “Control serum Blood-bank linear peptides” value [8]?
A: 1.0

Q: And the “Control serum LUMC linear peptides” value [10]?
A: 0.9

Q: What about the “Control serum LUMC looped peptides” value [10] of the same sequence?
A: 0.8

Q: What does the source list for WFSLEIQDLEEPCTK?
A: Recognition of the peptide by sera of individuals infected by SARS-CoV, form recognized [12]: recognized in linear and in looped form; Rabbit serum linear peptides [13]: 0.0; Rabbit serum looped peptides [13]: 0.4; Control Serum Blood-Bank Looped peptides [8]: 0.7; Control serum Blood-bank linear peptides [8]: 0.6; Control serum LUMC linear peptides [10]: 0.5; Control serum LUMC looped peptides [10]: 0.5
